Experimental data: patent publication US10301286B2, “Piperazine derivative” (Astellas Pharma Inc., priority 2015, dated 2019)
Structures can show the parent of a compound that is named as a salt.

Tests used:
human MC1 receptor = human MC1 receptor (Homo sapiens (Human), UniProt Q01726); test: Human MC receptor activation, cAMP production in cells expressing human MC1 receptor; format: cell-based; details: FreeStyle 293-F cells transiently expressing human MC1 receptor, α-MSH maximum = 100%
From the text: (1) Construction of Human MC Receptor-Expressing Vector
A human MC4 receptor gene (GenBank Accession No.: NM_005912.2), a human MC1 receptor gene (GenBank Accession No.: NM_002386.3), or a human MC3 receptor gene (GenBank Accession No.: NM_019888.3) was introduced into an expression vector pcDNA™ 3.1/V5-His TOPO (registered trademark) (Thermo Fisher Scientific Inc.).
(2) Construction of Cells Transiently Expressing Human MC Receptor
An expression vector for a human MC4, MC1, or MC3 receptor was introduced into FreeStyle™ 293-F cell (Thermo Fisher Scientific Inc., product number: R790-07). For the introduction, electroporation was employed. That is, 1×10^7 FreeStyle™ 293-F cell were suspended in 80 μL of an electroporation buffer (Thermo Fisher Scientific Inc., product number: B201-100), and 20 μg of the expression vector was added thereto. The resultant was put into a cuvette (OC-100 Processing Assembly, MaxCyte, Inc.) and electroporated with MaxCyte SIX (registered trademark) (MaxCyte, Inc.). The cells were cultured over one day, suspended in a Cell Banker (registered trademark) 1 (JUJI FIELD Inc.), product number: BLC-1), and stored frozen until their use.
(3) Measurement of Amount of cAMP Produced
Measurement was carried out by using a LANCE (registered trademark) Ultra cAMP Kit (PerkinElmer, Inc.) in accordance with the attached instructions. That is, after dissolution in DMSO, the test compound (a final concentration of 1 pM to 30 μM) diluted with an assay buffer (Hank's balanced salt solution, 5 mM 4-(2-hydroxyethyl)-1-piperazineethanesulfonic acid (HEPES), 0.5 mM 3-isobutyl-1-methylxanthine (IBMX), 0.1% bovine serum albumin, pH 7.4), or α-MSH (Bachem Inc., a final concentration of 1 pM to 30 μM) was added to OptiPlate-384 (PerkinElmer, Inc.). Furthermore, a suspension of cells transiently expressing the human MC4, MC1, or MC3 receptor prepared by using the assay buffer was added thereto at 1,000 cells/well, followed by being left to stand at room temperature for about 1 hour. Thereafter, an Eu-cAMP tracer solution and an ULight™-anti-cAMP solution were added thereto, followed by being left to stand at room temperature for about 1 hour. The amount of cAMP was calculated using EnVision (registered trademark) (PerkinElmer Inc.).
For the agonistic activity, an efficacy (EC50 (μM)) was calculated by a non-linear regression method with a Sigmoid-Emax model, by defining the maximum reaction with α-MSH as 100% and the reaction with the vehicle alone as 0%, respectively.

Male Wistar rats = test: Action on rat urethral pressure (phenylephrine-induced increase); format: in vivo; details: anesthetized rats, intravenous, dose giving 40% inhibition of phenylephrine-induced urethral pressure ΔAUC, read-out: ID40
Experimental: The present Test Example was carried out by partially modifying the technique reported as a testing system for evaluating an urethral resistance-reducing action (European Journal of Pharmacology, 679, 127-131 (2012)). Male Wistar rats (Charles River Laboratories Japan, Inc.) were anesthetized with urethane (1.2 g/kg ip), and placed in a supine position. The lower abdominal portion was midline-incised, and thus, the bladder was exposed. The bladder apex was incised, a microchip pressure transducer catheter (3.5 Fr, Millar) was inserted into the inside of the urethra, and then placed therein. In addition, a cannula for administration of a drug was placed into the femoral vein. After stabilization of the urethral pressure, phenylephrine hydrochloride (Sigma-Aldrich, 30 μg/kg) was administered intravenously to induce an increase in the urethral pressure. At an interval of about 30 minutes, this operation was repeated twice or more to confirm the stability of the reaction of a phenylephrine hydrochloride-induced increase in the urethral pressure. Thereafter, a test compound (dissolved in 20% dimethyl acetamide, 10% Cremophor (registered trademark) and 70% physiological saline) was intravenously administered, and then 5 minutes later, phenylephrine hydrochloride was administered. The procedure of administration of the test compound and administration of phenylephrine hydrochloride was repeated at an interval of about 30 minutes, and 3 to 5 doses of the test compound was evaluated (the test compound was administered at increasing doses). The data of reaction was introduced into a personal computer through PowerLab (registered trademark) (ADInstruments, Inc.), and analyzed with LabChart (registered trademark) (ADInstruments, Inc.). For the evaluation, the value of the area under the urethral pressure (mmHg·s) for one minute before and after administration of phenylephrine hydrochloride was determined to calculate the difference between before and after administration of phenylephrine hydrochloride (ΔAUC value). By taking the ΔAUC value obtained before administering the test compound as 100%, the ratio (reaction rate) of the ΔAUC value of the test compound at each dose was calculated. The rate at which the obtained reaction rate becomes 60% (40% as an inhibition rate) was defined as ID40, and the ID40 values of the test compounds were calculated by non-linear regression.

[1] = system: Male Sprague Dawley (SD) rats; test: Action on drug-induced voiding dysfunction model rat; format: in vivo; details: po, administered into the stomach, atropine sulfate + midodrine hydrochloride model, inhibition of decrease in voiding efficiency or increase of residual urine, P<0.05, read-out: Minimum effective dose
From the text: Male Sprague Dawley (SD) rats (Japan SLC, Inc.) were anesthetized with isoflurane and a cannula was placed in bladder, the stomach, and the jugular vein. Then, the rats were awakened in a Ballman cage (Natsume Seisakusho Co., Ltd.). After a post-operative stabilization period, physiological saline was continuously infused into the bladder by an infusion pump (Terumo Corporation, product number: TE-331S) to induce voiding. Infusion of the physiological saline was stopped at the time of voiding, and the amount of the voided urine was measured using an electronic top-loading balance placed under the Ballman cage. After completion of voiding, the residual urine was collected by gravity through the cannula placed in the bladder, and weighed, and the weight was defined as the amount of the residual urine. Further, the intravesical pressure was measured by a pressure transducer (Nihon Kohden Corporation, product numbers: TP-400, TDX-100) through the bladder cannula. The test compound or the vehicle was administered into the stomach, and atropine sulfate (Sigma-Aldrich, Inc., 0.01 mg/kg), which is an anticholinergic drug, and midodrine hydrochloride (Sigma-Aldrich, Inc., 0.3 mg/kg), which is an α1 adrenergic receptor stimulant, were administered intravenously to induce voiding dysfunctions. The voiding efficiency (=[voided amount/(voided amount+amount of residual urine)]×100) and the amount of the residual urine before and after administration of the test compound or the vehicle were measured, and the amount changed was evaluated. The value with vehicle administration and the value with the test compound administration were compared in a Dunnett's multiple comparison test with a statistically significant difference (P<0.05), and the minimum dose at which the inhibitory effect on a decrease in voiding efficiency or an increase of the amount of residual urine had been observed was defined as a minimal effective dose (3 to 12 animals per group).

human MC1 receptor, sequence (Q01726 whole entry): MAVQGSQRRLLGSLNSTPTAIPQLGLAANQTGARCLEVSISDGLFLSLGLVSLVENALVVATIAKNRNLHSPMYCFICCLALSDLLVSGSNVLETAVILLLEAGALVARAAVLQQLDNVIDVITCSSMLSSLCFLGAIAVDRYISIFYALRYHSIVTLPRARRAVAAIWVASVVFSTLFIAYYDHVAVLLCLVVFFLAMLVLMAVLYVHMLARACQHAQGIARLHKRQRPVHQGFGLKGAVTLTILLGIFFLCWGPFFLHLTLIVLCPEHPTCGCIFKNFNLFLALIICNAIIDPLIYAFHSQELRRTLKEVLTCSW

Structure (SMILES)	EC50 (human MC1 receptor)	ED40 (Male Wistar rats)	minimal effective dose [1]
Cc1ccc(C[C@@H](C(=O)O)N2CCN(C(=O)[C@@H]3CN(C(C)(C)C)C[C@H]3c3ccc(Cl)cc3F)[C@@H](C)C2)c(F)c1 [Example 4, (2S)-2-[(3S)-4-{[(3S,4R)-1-tert-butyl-4-(4-chloro-2-fluorophenyl)pyrrolidin-3-yl]carbonyl}-3-methylpiperazin-1-yl]-3-(2-fluoro-4-methylphenyl)propanoic acid dihydrochloride]	0.07 µM	0.0094 mg/kg	0.03 mg/kg
C[C@H]1CN([C@@H](Cc2ccc3c(c2)CCC3)C(=O)O)CCN1C(=O)[C@@H]1CN(C(C)(C)C)C[C@H]1c1ccc(F)cc1F [Example 5, (2S)-2-[(3S)-4-{[(3S,4R)-1-tert-butyl-4-(2,4-difluorophenyl)pyrrolidin-3-yl]carbonyl}-3-methylpiperazin-1-yl]-3-(2,3-dihydro-1H-inden-5-yl)propanoic acid dihydrochloride]	1.3 µM	0.13 mg/kg	0.3 mg/kg
CCC[C@H]1CN([C@@H](Cc2ccc3ccccc3c2)C(=O)O)CCN1C(=O)[C@@H]1CN(C(C)(C)C)C[C@H]1c1ccc(F)cc1F [Example 9]	0.39 µM	0.047 mg/kg	3 mg/kg
Cc1ccc(C[C@@H](C(=O)O)N2CCN(C(=O)[C@@H]3CN(C(C)(C)C)C[C@H]3c3ccc(Cl)cc3F)[C@@H](C)C2)cc1 [Example 11]	0.86 µM	0.088 mg/kg	0.3 mg/kg
Cc1cc(F)c(C[C@@H](C(=O)O)N2CCN(C(=O)[C@@H]3CN(C(C)(C)C)C[C@H]3c3ccc(Cl)cc3F)[C@@H](C)C2)c(F)c1 [Example 76]	0.1 µM	0.0047 mg/kg	0.03 mg/kg
Cc1ccc(C[C@@H](C(=O)O)N2CCN(C(=O)[C@@H]3CN(C4CCOCC4)C[C@H]3c3ccc(Cl)cc3F)[C@@H](C)C2)c(F)c1 [Example 87, (2S)-2-[(3S)-4-{[(3S,4R)-4-(4-chloro-2-fluorophenyl)-1-(tetrahydro-2H-pyran-4-yl)pyrrolidin-3-yl]carbonyl}-3-methylpiperazin-1-yl]-3-(2-fluoro-4-methylphenyl)propanoic acid dihydrochloride]	1.1 µM	0.04 mg/kg	0.1 mg/kg
Cc1cc(C)c(C[C@@H](C(=O)O)N2CCN(C(=O)[C@@H]3CN(C4CCOCC4)C[C@H]3c3ccc(Cl)cc3F)[C@@H](C)C2)c(F)c1 [Example 88]	2.7 µM	0.04 mg/kg	0.1 mg/kg
Cc1cc(C)c(C[C@@H](C(=O)O)N2CCN(C(=O)[C@@H]3CN(C(C)(C)C)C[C@H]3c3ccc(Cl)cc3F)[C@@H](C)C2)c(C)c1 [Example 89]	1.3 µM	0.024 mg/kg	0.1 mg/kg
